# Data: PubChem BioAssay (NCI)
#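 All cell lines were grown in 96-well plates and treated with compound for 48 hours. The concentration for full growth arrest is given as TGI.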
# Tests used:
# Assay in all cases: NCI tumour cell line growth inhibition, 48 h
# [1] = system: HS 578T breast
# [2] = system: OVCAR-4 ovarian
# [3] = system: HCT-15 colon
# [4] = system: SF-268 CNS
# [5] = system: OVCAR-8 ovarian
# [6] = system: HL-60(TB) leukemia
# [7] = system: OVCAR-5 ovarian
# [8] = system: MDA-MB-435
# [9] = system: SF-295 CNS
# [10] = system: U251 CNS
# [11] = system: OVCAR-3 ovarian
# [12] = system: SF-539 CNS
# [13] = system: TK-10 renal
# [14] = system: M14 melanoma
Structure (SMILES),TGI [1] [µM],TGI [2] [µM],TGI [3] [µM],TGI [4] [µM],TGI [5] [µM],TGI [6] [µM],TGI [7] [µM],TGI [8] [µM],TGI [9] [µM],TGI [10] [µM],TGI [11] [µM],TGI [12] [µM],TGI [13] [µM],TGI [14] [µM]
N#CCCN(CCC#N)c1ccc(/C=C2\SC(=S)NC2=O)cc1,> 100,> 100,> 100,> 100,> 100,> 100,> 100,> 100,> 100,47,> 100,> 100,> 100,> 100
c1ccc(C(c2cccc3c2ccc2ccccc23)C(c2ccccc2)c2cccc3c2ccc2ccccc23)cc1 (stereo not given),> 100,> 100,> 100,> 100,> 100,> 100,> 100,> 100,> 100,> 100,> 100,> 100,> 100,> 100
O=C(NNS(=O)(=O)c1ccc(Br)cc1)c1ccc(Cl)cc1NC(=O)C12CC3CC(CC(C3)C1)C2,40.7,23.8,45.4,24.9,31.9,67.9,34.3,25.8,29.3,22.7,26.5,32.3,33.2,33.6
Cc1ccc(/C(O)=C/c2nc3cccnc3[nH]c2=O)cc1,> 100,> 100,> 100,> 100,> 100,> 100,> 100,> 100,> 100,> 100,> 100,> 100,> 100,> 100
COc1cc(NS(C)(=O)=O)ccc1NCc1cnc2ccc3[nH]cccc3c12,47.5,65.7,58.4,55.3,75.7,18.3,50.4,43.8,53.4,> 81.2,53.2,42.2,> 81.8,31.4
CC(=O)OC12CC(C(F)(F)F)(C(F)(F)F)OC1(OC(C)=O)CC(C(F)(F)F)(C(F)(F)F)O2 (stereo not given),> 100,> 100,> 100,6.37,> 100,11.3,90.6,> 100,> 100,19.2,> 100,8.48,> 100,> 100
Cc1nc(N)sc1C(=O)Nc1ncn[nH]1,> 100,> 100,> 100,> 100,> 100,49.9,> 100,> 100,> 100,> 100,> 100,> 100,> 100,> 100
COC(=O)CCCC1(CCCC(=O)OC)CCCCCCCCC(CCCC(=O)OC)(CCCC(=O)OC)C(=O)C1=O,> 100,54.7,> 100,55.3,> 100,12.2,> 100,> 100,> 100,40.7,79.7,61.3,> 100,> 100
Cc1ccc(S(=O)(=O)/N=C2/N(C)CCCS2(=O)=O)cc1,> 100,> 100,> 100,> 100,> 100,> 100,> 100,> 100,> 100,> 100,> 100,> 100,> 100,> 100
COCCOC(C)C(=O)C(O)S(=O)(=O)O (stereo not given),> 100,> 100,> 100,> 100,> 100,> 100,> 100,> 100,> 100,> 100,> 100,> 100,> 100,> 100
